Measured values as given in publication PMC12645137 (Current Neuropharmacology, 2025).

Experiments:
DPPH antioxidant assay = assay type: physicochemical; conditions: for % Inhibition (DPPH free radicals): mean ± SEM
Description: To evaluate the in-vitro antioxidant potential of the synthesized derivatives, a previously reported 1,1 Diphenyl, 2 Picrylhydrazyl (DPPH) assay was utilized. The DPPH solution was prepared by dissolving twenty-four mg DPPH in methanol (100 ml). Test sample solutions in various concentrations (62.50 to 1000 μg/mL) were also prepared. From each dilution, 1 ml sample solution was taken to which 1 ml solution of DPPH was added. The solution mixture was incubated at 23°C for 30 minutes in the dark and then subjected to a UV-visible spectrophotometer to note the absorbance at 517 nm. The absorbance values of all samples were taken in triplicate. Ascorbic acid served as positive control, while negative control only contained a solution of DPPH having no test samples. The % free radical scavenging potential of our compounds was determined by the given formula.
% free radical scavenging activity = [drawing 2] x100
X is the control absorbance, whereas X1 is the absorbance of the test sample.

[1] = molecular target: T1, BChE (source equine serum) (Equus caballus, UniProt P81908); assay: biochemical; conditions: for inhibition at 62.5 µg/mL / inhibition at 125 µg/mL / inhibition at 250 µg/mL / inhibition at 500 µg/mL / inhibition at 1000 µg/mL: read-out: % BChE Inhibition
T1 construct: from tissue; host or cells: equine serum
T1 sequence (P81908 whole entry): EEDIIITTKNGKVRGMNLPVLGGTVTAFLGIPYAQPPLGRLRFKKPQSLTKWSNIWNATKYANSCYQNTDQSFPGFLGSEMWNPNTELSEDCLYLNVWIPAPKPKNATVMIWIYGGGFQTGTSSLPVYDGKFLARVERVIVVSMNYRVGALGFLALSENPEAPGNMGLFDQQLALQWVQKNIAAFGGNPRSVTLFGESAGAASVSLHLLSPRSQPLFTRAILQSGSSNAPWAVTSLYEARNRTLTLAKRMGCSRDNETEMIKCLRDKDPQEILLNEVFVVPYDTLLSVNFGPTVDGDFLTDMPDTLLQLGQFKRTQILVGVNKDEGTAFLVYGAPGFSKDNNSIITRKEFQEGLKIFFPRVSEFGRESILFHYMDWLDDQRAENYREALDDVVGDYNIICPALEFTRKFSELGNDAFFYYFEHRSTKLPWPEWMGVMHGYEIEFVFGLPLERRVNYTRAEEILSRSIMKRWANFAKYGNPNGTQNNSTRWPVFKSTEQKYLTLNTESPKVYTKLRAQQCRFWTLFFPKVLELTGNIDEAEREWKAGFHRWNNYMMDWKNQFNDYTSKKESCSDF
Description: (§1) The cholinesterase inhibitory potentials of our synthesized compounds were evaluated against cholinesterase enzymes (AChE/BChE). The AChE (source Electric eel) and BChE (source equine serum) were used in the study following previously published Ellman's assay. The assay basic principle involves the hydrolytic breakdown of acetylthiocholine iodide (ATChI) by AChE and butyryl thiocholine iodide (BTChI) by BChE enzymes, leading to the formation of an intermediate compound which is subsequently complexed with 5,5-dithio bis nitrobenzoic acid (DTNB) to form a UV-detectable compound. The yellowish color product indicates the hydrolysis of ATChI and BTChI substrates by respective enzymes, which were analyzed at 412 nm using a UV-visible spectrophotometer. […] A test sample of 1000 µl was taken in a cuvette, to which enzyme solution (50 µl) and DTNB reagent of 50 µL were added. The AChE (0.03 U/ml) and BChE (0.01 U/ml) solutions were prepared in 0.1 M phosphate buffer having pH 8.0. The ATChI and BTChI substrate solutions (0.0005 M) and 0.0002273 M solution of DTNB were prepared using distilled water and stored at 8°C before further use. For 15 minutes, the solution mixture was incubated at 30 °C, after which a solution of the substrate (50 µl) was added and then subjected to spectroscopic analysis. Using a double beam spectrophotometer, the sample absorbance was measured for 4 minutes at 412 nm beside the time of reaction. […] All values were taken in triplicate under the same conditions.
(§2) Enzymatic activity percentage=V/Vmaxx100
(§3) V is the reaction rate in the inhibitor's presence, whereas Vmax is the reaction rate in the absence of the inhibitor.

[2] = molecular target: T2, AChE (source Electric eel) (Electrophorus electricus, UniProt O42275); assay: biochemical; conditions: for inhibition at 62.5 µg/mL / inhibition at 125 µg/mL / inhibition at 250 µg/mL / inhibition at 500 µg/mL / inhibition at 1000 µg/mL: read-out: % AChE Inhibition
T2 construct: from tissue
T2 sequence (O42275 24-633): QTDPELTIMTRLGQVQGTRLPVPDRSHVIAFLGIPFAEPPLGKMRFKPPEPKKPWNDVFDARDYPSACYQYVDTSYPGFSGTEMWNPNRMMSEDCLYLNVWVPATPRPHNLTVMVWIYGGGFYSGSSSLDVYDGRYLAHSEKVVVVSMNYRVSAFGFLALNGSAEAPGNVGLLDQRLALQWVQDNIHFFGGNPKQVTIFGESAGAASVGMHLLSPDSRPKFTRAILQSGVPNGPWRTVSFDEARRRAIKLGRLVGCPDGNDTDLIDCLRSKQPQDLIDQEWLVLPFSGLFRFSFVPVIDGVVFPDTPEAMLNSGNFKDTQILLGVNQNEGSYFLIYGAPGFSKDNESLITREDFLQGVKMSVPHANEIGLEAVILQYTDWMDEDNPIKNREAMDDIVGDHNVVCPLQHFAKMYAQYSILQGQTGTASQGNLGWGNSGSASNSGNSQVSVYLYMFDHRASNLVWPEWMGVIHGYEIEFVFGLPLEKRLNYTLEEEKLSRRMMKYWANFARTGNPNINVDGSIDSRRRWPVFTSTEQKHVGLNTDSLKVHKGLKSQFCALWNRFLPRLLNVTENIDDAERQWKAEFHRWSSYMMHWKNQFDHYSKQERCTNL
Description: as §1, §2, §3

[3] = tested on: scopolamine-induced amnesic mice; assay: Open field test (OFT) in scopolamine-induced amnesic animals; assay type: in vivo, albino mice; conditions: i.p., AN-1 10 mg/kg, progesterone 10 mg/kg, galantamine 8 mg/kg; for number of lines crossed: 5 min, disease group 26.33; for number of lines crossed / time spent in the central area: scopolamine 1 mg/kg amnesic mice; for time spent in the central area: 30 min exploration, disease group 4.66; for time spent in the peripheral area: versus scopolamine/disease group
Description: (§4) The mice were divided into the following five groups, and each group had six animals. The standard drug and test samples were carefully administered to the mice via the intraperitoneal route.
(§5) Group IV (Progesterone treated group) = Animals treated with 10 mg/kg progesterone and scopolamine 1 mg/kg.
(§6) Group V (Test compound group) = Animals received 10 mg/kg progesterone derivative (AN-1) and 1 mg/kg scopolamine.
Open field behavioral test was carried out for the assessment of locomotor activities like the number of line crossing. The apparatus was made from plywood having 81×81×28.5 cm dimensions. Sixteen squares (20×20 cm) were made on the base of the apparatus by drawing four horizontal and four vertical lines. […] Furthermore, exploration time spent by mice in central and peripheral areas of the apparatus was also recorded by allowing the mice for 30 minutes to explore the apparatus.

[4] = tested on: scopolamine-induced amnesic mice; assay: Y-Maze test in scopolamine-induced amnesic animals; assay type: in vivo, albino mice; conditions: scopolamine 1 mg/kg amnesic mice; i.p.; AN-1 10 mg/kg, progesterone 10 mg/kg, galantamine 8 mg/kg; disease group 22.27%
Description: as §4, §5, §6
To determine the effect of synthesized compounds on short-term learning and memory of experimental mice, a Y-Maze test was used. The Y-Maze apparatus consists of three arms that are fixed at 120° angle from each other and have 30 cm length, 20 cm height, and 8 cm width dimensions. After 30 minutes of giving test compounds intraperitoneally, the mouse was positioned at the arm end in such a way that it faced away from the midpoint of the apparatus and was permitted to search the apparatus for five minutes freely. The arm entry sequence and number by each mouse were recorded for 5 minutes using a digital camera. Alternation is defined as the successive entry into 3 dissimilar arms by a mouse (i.e., CBA, BCA, ABC). When the back paws of a mouse were found inside an arm wholly, the arm entry was considered completed. Seventy percent v/v ethanol was used for cleaning the apparatus and to avoid smell cues. The spontaneous alternation performance (SAP) percentage was calculated using the following formula [37]:
% alternation = [(alternations number) / (total arm entries number – 2)] × 100

[5] = tested on: scopolamine-induced amnesic mice; assay: Elevated Plus Maze (EPM) test in scopolamine-induced amnesic animals; assay type: in vivo, albino mice; conditions: scopolamine 1 mg/kg amnesic mice, i.p., AN-1 10 mg/kg, progesterone 10 mg/kg, galantamine 8 mg/kg; for retention transfer latency (RTL): 24 h after training, disease group 67 sec; for initial transfer latency (ITL): disease group 73 sec
Description: as §4, §5, §6
The EPM behavioral test was performed to assess the learning abilities and long-term spatial memory of the experimental animals. The EPM apparatus has the appearance of a plus sign which was 50 cm elevated from the ground. The apparatus has two open arms (50 cm long and 10 cm wide), and two closed arms having dimensions of 20, 50, and 10 cm in height, length, and width, respectively. The open and closed arms were joined with a 10 × 10 central square.
After 30 minutes of the intraperitoneal drug administration on the seventh day of treatment, mice of each group were placed over the open arm end of the EPM apparatus in such a way that their faces were away from the midpoint of the apparatus. Transfer latency (TL) is the time a mouse takes to enter the closed arm entirely with all its legs from the open arm of the apparatus. The time of initial transfer latency (ITL) was observed, and then the animals were allowed freely for 1.5 minutes to search the EPM apparatus.
After twenty-four hours of the training period, test trials were conducted to determine the retention of tasks that were learnt during training. Retention transfer latency (RTL) was measured by placing the experimental mice at the open end of the apparatus, ensuring that they faced away from its midpoint. The mouse was allowed to enter the closed arm entirely with all its legs. A decline in TL compared to ITL indicated an improvement in memory.

SMILES	IC50 (DPPH antioxidant assay)	% Inhibition (DPPH free radicals) (DPPH antioxidant assay; 62.5 µg/ml)	% Inhibition (DPPH free radicals) (DPPH antioxidant assay; 125 µg/ml)	% Inhibition (DPPH free radicals) (DPPH antioxidant assay; 250 µg/ml)	% Inhibition (DPPH free radicals) (DPPH antioxidant assay; 500 µg/ml)	% Inhibition (DPPH free radicals) (DPPH antioxidant assay; 1000 µg/ml)	IC50 [1]	inhibition at 62.5 µg/mL [1]	inhibition at 125 µg/mL [1]	inhibition at 250 µg/mL [1]	inhibition at 500 µg/mL [1]	inhibition at 1000 µg/mL [1]	IC50 [2]	inhibition at 62.5 µg/mL [2]	inhibition at 125 µg/mL [2]	inhibition at 250 µg/mL [2]	inhibition at 500 µg/mL [2]	inhibition at 1000 µg/mL [2]	also measured
O=C1O[C@H]([C@@H](O)CO)C(O)=C1O [Ascorbic Acid, Ascorbic acid, reference compound]	54.1 µM	67.69 ± 2.18%	71.25 ± 4.29%	74.50 ± 3.04%	86.00 ± 0.70%	91.17 ± 1.62%	–	–	–	–	–	–	–	–	–	–	–	–	–
C/C(=N/Cc1ccc(Cl)cc1)[C@H]1CC[C@H]2[C@@H]3CCC4=CC(=O)CC[C@]4(C)[C@H]3CC[C@]12C [AN4, (8S,9S,10R,13S,14S,17S)-17-((Z)-1-((4-chlorobenzyl)imino)ethyl)-10,13-dimethyl-1,2,6,7,8,9,10,11,12,13,14,15,16,17-tetradecahydro-3H-cyclopenta [a]phenanthren-3-one]	188 µM	46.88 ± 0.65%	55.52 ± 3.43%	60.69 ± 1.92%	66.80 ± 3.47%	69.87 ± 2.81%	149 µM	49.5%	56.9%	63.1%	64.7%	76.3 ± 1.56%	213 µM	47%	52.7%	60.3%	67.7%	70 ± 2.26%	–
CC(=O)[C@H]1CC[C@H]2[C@@H]3CCC4=CC(=O)CC[C@]4(C)[C@H]3CC[C@]12C [progesterone]	–	–	–	–	–	–	–	–	–	–	–	–	–	–	–	–	–	–	number of lines crossed [3]: 42; time spent in the central area [3]: 9.66 mint; time spent in the peripheral area [3]: significant (p˂0.05) decline in time spent peripherally; spontaneous alternation [4]: 40.001%; retention transfer latency (RTL) [5]: 50.33 s; initial transfer latency (ITL) [5]: 56.5 s
C/C(=N/Cc1ccccc1)[C@H]1CC[C@H]2[C@@H]3CCC4=CC(=O)CC[C@]4(C)[C@H]3CC[C@]12C [AN5, (8S,9S,10R,13S,14S)-17-((Z)-1-(benzylimino)ethyl)-10,13-dimethyl-1,2,6,7,8,9,10,11, 12,13,14,15,16,17-tetradecahydro-3H cyclopenta[a]phenan-thren-3-one]	110 µM	52.18 ± 1.42%	56.99 ± 2.50%	65.46 ± 1.83%	67.51 ± 2.56%	73.12 ± 1.04%	63 µM	58.1%	65.9%	71.4%	75.8%	85.5 ± 2.83%	156 µM	50.4%	59.7%	65.2%	77.3%	83.5 ± 2.31%	–
C/C(=N/Cc1ccc(C)cc1)[C@H]1CC[C@H]2[C@@H]3CCC4=CC(=O)CC[C@]4(C)[C@H]3CC[C@]12C [AN2, (8S,9S,10R,13S,14S)-17-((Z)-1-((4-methylbenzyl)imino)ethyl)-10,13-dimethyl-1,2,6,7,8,9,10,11,12,13,14,15,16,17-tetradecahydro-3H-cyc-lopenta[a]phenanthren-3-one]	62.5 µM	55.65 ± 2.44%	57.44 ± 2.47%	65.77 ± 3.32%	66.26 ± 1.60%	71.47 ± 1.83%	138 µM	50.8%	52.9%	74.1%	72%	77.5 ± 1.29%	173 µM	48.3%	57.4%	64.3%	75.7 ± 1.26%	75.7 ± 2.82%	–
COc1ccc(C/N=C(/C)[C@H]2CC[C@H]3[C@@H]4CCC5=CC(=O)CC[C@]5(C)[C@H]4CC[C@]23C)cc1OC [AN3, (8S,9S,10R,13S,14S,17S)-17-((Z)-1-((3,4-dimethoxybenzyl)imino)ethyl)-10,13-dimethyl-1,2,6,7,8,9,10,11,12,13,14,15,16,17-tetradecahydro-3H-cyclo-penta[a]phenanthren-3-one]	86.4 µM	54.18 ± 2.16%	56.86 ± 2.33%	61.18 ± 2.23%	66.44 ± 2.58%	72.32 ± 1.37%	112 µM	55.5%	59.9%	64.3%	81.8%	87.9 ± 1.96%	133 µM	50.7%	62.9%	64.6%	78.2%	82.8 ± 2.02%	–
COc1ccc2c3c1O[C@H]1C[C@@H](O)C=C[C@@]31CCN(C)C2 [Galantamine, reference compound]	–	–	–	–	–	–	–	67.2%	72.9%	77.4%	84.4%	89.5 ± 1.93%	–	–	–	–	–	–	number of lines crossed [3]: 50.33; time spent in the central area [3]: 13 mint; time spent in the peripheral area [3]: significantly (p<0.01) less time in the peripheral area; spontaneous alternation [4]: 47.56%; retention transfer latency (RTL) [5]: 38.33 s; initial transfer latency (ITL) [5]: 47.33 s
